From ChEMBL document CHEMBL1137843, “N-4-Substituted-benzyl-N'-tert-butylbenzyl thioureas as vanilloid receptor ligands: investigation on the role of methanesulfonamido group in antagonistic activity” (Bioorg Med Chem Lett, 2004)

Target: T1, Vanilloid receptor (Rattus norvegicus, UniProt Q9ERZ8+Q9WUD2+O35433)
Test: In vitro agonist activity, increased [Ca2+] influx, at vanilloid receptor of rat dorsal root ganglia
Assay type: functional

Row | EC50 | Structure (SMILES)
1 | 7 µM | CC(C)(C)c1ccc(C/N=C(\S)NCc2ccc(N)cc2)cc1

Target: T1, Vanilloid receptor
Test: In vitro antagonist activity at the vanilloid receptor in rat DRG neurons.
Assay type: functional

Row | Structure (SMILES) | IC50
2 | CC(C)(C)c1ccc(C/N=C(\S)NCc2ccc(C(F)(F)F)cc2)cc1 | 12.4 µM
3 | CCS(=O)(=O)Nc1ccc(C/N=C(\S)NCc2ccc(C(C)(C)C)cc2)cc1 | 1.3 µM
4 | CCCCS(=O)(=O)Nc1ccc(C/N=C(\S)NCc2ccc(C(C)(C)C)cc2)cc1 | 4.1 µM
5 | CNS(=O)(=O)Nc1ccc(C/N=C(\S)NCc2ccc(C(C)(C)C)cc2)cc1 | 2.5 µM
6 | CC(C)(C)c1ccc(C/N=C(\S)NCc2ccc(NS(=O)(=O)Cc3ccccc3)cc2)cc1 | 1.5 µM
7 | CN(C)S(=O)(=O)Nc1ccc(C/N=C(\S)NCc2ccc(C(C)(C)C)cc2)cc1 | 14.6 µM
8 | Oc1cc2c(cc1O)CN(C(=S)NCCc1ccc(Cl)cc1)CCC2 [CAPSAZEPINE] | 0.65 µM

Now from value to compound:

Row | IC50 | Structure (SMILES)
9 | 12.4 µM | CC(C)(C)c1ccc(C/N=C(\S)NCc2ccc(NS(=O)(=O)C(F)(F)F)cc2)cc1
10 | 2.5 µM | CN(c1ccc(C/N=C(\S)NCc2ccc(C(C)(C)C)cc2)cc1)S(C)(=O)=O
11 | 0.3 µM | COc1cc(C/N=C(\S)NCc2ccc(C(C)(C)C)cc2)ccc1OS(C)(=O)=O
12 | 1 µM | CC(C)(C)c1ccc(C/N=C(\S)NCc2ccc(NS(N)(=O)=O)cc2)cc1
13 | 9.3 µM | CC(C)(C)c1ccc(C/N=C(\S)NCc2ccc(OS(C)(=O)=O)cc2)cc1
14 | 11.7 µM | CC(C)(C)c1ccc(C/N=C(\S)NCc2ccc(NS(=O)(=O)CC(F)(F)F)cc2)cc1
15 | 3.8 µM | CC(C)S(=O)(=O)Nc1ccc(C/N=C(\S)NCc2ccc(C(C)(C)C)cc2)cc1
16 | 4.5 µM | CCCS(=O)(=O)Nc1ccc(C/N=C(\S)NCc2ccc(C(C)(C)C)cc2)cc1

Target: T1, Vanilloid receptor
Test: In vitro agonist activity, increased [Ca2+] influx, at vanilloid receptor of rat dorsal root ganglia (partial at 30 uM)
Assay type: functional

Row | EC50 | Structure (SMILES)
17 | > 30 µM | CC(C)(C)c1ccc(C/N=C(\S)NCc2ccc(NC(=N)S)cc2)cc1
18 | > 30 µM | CC(C)(C)c1ccc(C/N=C(\S)NCc2ccc(O)cc2)cc1

Target: T1, Vanilloid receptor
Test: In vitro antagonist activity at vanilloid receptor in rat dorsal root ganglia (partial at 30 uM)
Assay type: functional

Row | IC50 | Structure (SMILES)
19 | > 30 µM | CC(C)(C)c1ccc(C/N=C(\S)NCc2ccc([N+](=O)[O-])cc2)cc1
20 | > 30 µM | CC(C)(C)c1ccc(C/N=C(\S)NCc2ccc(NC(=N)S)cc2)cc1
21 | > 30 µM | CC(C)(C)c1ccc(C/N=C(\S)NCc2ccc(NS(=O)(=O)c3cccs3)cc2)cc1
